# In patent US10085971B2, “Pharmaceutical solution of asenapine for sublingual or buccal use” (Navinta III Inc, priority 2016, dated 2018):
# Counter-ions that a name gives are not always drawn.
# Key:
# [1] = Solubility in ethanol water mixture; type: physicochemical; details: both crystal forms
# [2] = oral dosing in human patients; cited from earlier work
Solubility [1],Compound,Side effects of oral dosing [2]
good solubility,CN1CC2c3ccccc3Oc3ccc(Cl)cc3C2C1 (centres unmarked) [Asenapine maleate],–
–,"CN1C[C@H]2c3ccccc3Oc3ccc(Cl)cc3[C@@H]2C1 (relative stereo) [Asenapine, trans-5-chloro-2-methyl-2,3,3a, 12b-tetrahydro-1 H-dibenz[2,3:6,7]oxepino-[4,5-c]pyrrole]",serious cardiotoxic side effects including postural hypotension
